Assay [1] deals with CTP:phosphocholine cytidylyltransferase (CCT). In words: CCT assay in rat brain cortical homogenates with liposomes. The settings on record: DOPC liposomes, 200 μM; for CCT activity: 8.9±1.0 without lipid. Type of assay: biochemical.
Assay [2] has the same test system. The assay can be described thus: CCT assay in homogenates of treated hippocampal neurons. The settings on record: 50 μM PDMP. Format: cell-based, rat. The method, then:
(§1) Neurons from individual cover slips were washed twice with ice-cold phosphate-buffered saline, and cells removed by scraping into 300 μl of buffer containing 50 mM imidazole, 2 mM EDTA, 150 mM KCl, 6 mM ADP, 0.2 mM phenylmethylsulfonylfluoride, 1 μg/ml pepstatin and 1 μg/ml leupeptin. After brief sonication, an aliquot was removed for DNA determination and 100 μl was used for the CCT assay.
CCT was assayed as described (Weinhold P A and Feldman D A. 1992. Choline-phosphate cytidylyltransferase. Methods Enzymol. 209, 248-258), with some minor modifications. The assay was performed in a final volume of 200 μl containing 1.6 mM phosphorylcholine/0.25 μCi [^14C]methyl phosphorylcholine, 3 mM CTP, 12 mM magnesium acetate, and DOPC liposomes with or without oleic acid and GicCer or GalCer, as indicated in the figure legends. Liposomes were prepared by sonicating resuspended lipids in the assay buffer at room temperature for 3 min using a sonicator (Sonics & Materials Inc., Newtown, Conn.) fitted with a micro-tip probe set to 750 W output, using 25% of the maximal amplitude and with pulsations of 9.0 sec every 9.2 sec, which gave a translucent liposome preparation with no precipitates. The final concentration of DOPC and oleic acid in the liposomes was 500 μM each. […]

The test system of a further assay is rat hippocampal neurons. The settings on record: 50 μM PDMP; cited from earlier work.
The subject of assay [3] is CTP:phosphocholine cytidylyltransferase (CCT). In words: CCT assay in hippocampal neuron homogenates with substance added to the assay mixture. Format: biochemical, rat. The note with it: 0.5 mM DOPC/0.5 mM oleic acid/0.3 mM sphingolipid or lyso-sphingolipid; 8-day-old neurons. The method, then:
as §1
(§2) CCT was assayed as described (Weinhold P A and Feldman D A. 1992. Choline-phosphate cytidylyltransferase. Methods Enzymol. 209, 248-258), with some minor modifications. The assay was performed in a final volume of 200 μl containing 1.6 mM phosphorylcholine/0.25 μCi [^14C]methyl phosphorylcholine, 3 mM CTP, 12 mM magnesium acetate, and DOPC liposomes with or without oleic acid and GicCer or GalCer, as indicated in the figure legends. Liposomes were prepared by sonicating resuspended lipids in the assay buffer at room temperature for 3 min using a sonicator (Sonics & Materials Inc., Newtown, Conn.) fitted with a micro-tip probe set to 750 W output, using 25% of the maximal amplitude and with pulsations of 9.0 sec every 9.2 sec, which gave a translucent liposome preparation with no precipitates. The final concentration of DOPC and oleic acid in the liposomes was 500 μM each. The reaction was terminated after 25 min at 37° C. by addition of 200 μl of 150 mM phosphorylcholine in 10% trichloroacetic acid. CDP-choline was recovered by addition of 2 ml of 6% charcoal in water (w/v). After 30 min at room temperature the charcoal suspension was washed 4 times with water and centrifuged at 1,000 gav for 10 min. The aqueous supernatants were removed and CDP-choline was eluted from the charcoal with 3 washes of water/ethanol/28% NH4OH (116:188:11, v/v/v). Eluates were pooled and evaporated to dryness under N2. Phosphorylcholine and CDP-choline were added to the tubes and the samples separated by TLC using 0.9% NaCl/methanol/28% NE4OH (50:70:5, v/v/v) as the developing solvent. Metabolites were identified by iodine, and the CDP-choline spot was scraped into scintillation vials for scintillation counting.
CCT activity was assayed in homogenates prepared from 8-day-old normal rat hippocampal neurons as described herein above. The reaction mixture comprised 0.5 mM DOPC/0.5 mM oleic acid/0.3 mM sphingolipid or lyso-sphingolipid. CCT activity with each sphingolipid or lyso-sphingolipid was measured twice. Basal CCT activity differed by ˜20% between the two experiments; however, the extent of activation or inhibition of CT activity was similar for each sphingolipid and lyso-sphingolipid.

Assay [4] has the same test system. In words: CCT assay in rat brain cortical homogenates with liposomes. Format: biochemical. On the procedure: as §2
When CCT was assayed in rat or mouse brain cortical homogenates (1 g tissue/12.5 ml of buffer), the homogenate was first centrifuged (200 gav, 20 min) to remove cell debris. The homogenate was diluted with assay buffer to give a final concentration of 200 μg protein/ml. CCT activity was also assayed using purified rat brain CCT (see below).

The subject of a further assay is purified rat brain CCT. The assay can be described thus: CCT assay with purified rat brain CCT and liposomes. Format: biochemical. The method, then: as §2
Rat brain CCT was purified by a method similar to that described for rat liver (Weinhold and Feldman, supra; Weinhold P A Rounsifer M E and Feldman D A. 1986. The purification and characterization of CTP:phosphorylcholine cytidylyltransferase from rat liver. J Biol Chem 261:5104-5110). Rat brains (11 g) were isolated from 8-10-week old rats and homogenized in 51 ml of buffer A (50 mM Tris-HCl pH 7.4, 150 mM NaCl, 1 mM EDTA, 2 mM dithiothreitol, 0.025% (w/v) sodium azide, 1 mM phenylmethylsulfonylfluoride). Brain cytosol was prepared by collecting the supernatants obtained after two sequential centrifugation steps at 10,000 gav for 20 min, and 100,000 gav for 1 h. The protein concentration of the cytosol was adjusted to 6 mg/ml with buffer A, egg yolk PC/oleic acid liposomes were added, followed by acid precipitation. The precipitate was re-suspended in 54 ml of buffer A containing 20 mM n-octyl-β-D-glucopyranoside and 1 mM phenylmethylsulfonylfluoride for 30 min at room temperature. After centrifugation (10,000 gav, 20 min), the n-octyl-β-D-glucopyranoside extract was loaded onto a DEAE-sepharose CL-6B column that had been previously packed and equilibrated with 300 ml of buffer A. All elution procedures were performed using a flow rate of 40 ml/h. The column was successively washed with 100 ml of buffer A, 300 ml of a gradient of 150 mM to 300 mM NaCl in buffer B (50 mM Tris-HCl pH 7.4, 1 mM EDTA, 2 mM dithiothreitol, 0.025% (w/v) sodium azide), and 150 ml of buffer B containing 300 mM NaCl. CCT was eluted with 70 ml of buffer B containing 400 mM NaCl and 50 mM n-octyl-β-D-glucopyranoside.
The fractions containing CCT activity were pooled, diluted with 4 volumes of buffer A and loaded onto a HTP gel hydroxyapatite column (BioRad) that had previously been equilibrated with 200 ml of buffer A. Elutions were performed at flow rates of 20 ml/hour. […]

[5] abbreviates: liposomes of DOPC and oleic acid.

A value given as a limit tells only on which side of the number the result lay.

Consider `CCCCCCCCCCCCCC=CC(O)C(COC1OC(CO)C(O)C(O)C1O)NC(=O)CCCCCCC` (centres unmarked) [C8-GalCer], for which the CCT activity in assay [1] is 9.1±0.8 nmol/min/mg of protein.

With `CCCCCCCCCCCCC/C=C/[C@@H](O)[C@H](COC1OC(CO)C(O)C(O)C1O)NC(=O)CCCCCCC` (some centres unmarked) [C8-GlcCer], the CCT activity in assay [1] is 25.9±4.4 nmol/min/mg of protein.

In the case of `CCCCCCCCCC(=O)N[C@H](CN1CCOCC1)[C@H](O)c1ccccc1` [PDMP, D-threo-1-phenyl-2-decanoyl-amino-3-morpholino-1-propanol], in assay [2], the “CCT activity after treatment of neurons” value is on record as “significant reduction”. Also, the “rate of axonal growth” value with rat hippocampal neurons was “reduction”.

Take `CCCCCCCCCCCCC/C=C/[C@@H](O)[C@@H](N)CO[C@@H]1O[C@H](CO)[C@H](O)[C@H](O)[C@H]1O` [galactosylsphingosine]: the “effect on CCT activity” value in assay [3] is listed as “No significant effect”. The “effect of exogenously-added lipid on CCT activity” value (shortened to “effect of exogenously-added lipid”) in assay [4] was “no elevation of activity”.

With `CCCCCCCCCCCCC/C=C/[C@@H](O)[C@@H](N)CO[C@@H]1O[C@H](CO)[C@@H](O)[C@H](O)[C@H]1O` [glucosylsphingosine], in assay [3], the “effect on CCT activity” value was “No significant effect”. For the same molecule, the “effect of exogenously-added lipid” value in assay [4] is given as “no elevation of activity”.

Regarding `CCCCCCCCCCCCC/C=C/[C@@H](O)C(N)CO[C@H]1O[C@H](CO)[C@@H](O[C@@H]2O[C@H](CO)[C@H](O)[C@H](O)[C@H]2O)[C@H](O)[C@@H]1O` (some centres unmarked) [lactosylsphingosine], the “effect on CCT activity” value in assay [3] is listed as “inhibited”.

`CCCCCCCCCCCCC/C=C/[C@@H](O)[C@@H](N)COP(=O)([O-])OCC[N+](C)(C)C` [lysosphingomyelin]: the “effect on CCT activity” value in assay [3] is given as “inhibited”.

On to `CCCCCCCC/C=C\CCCCCCCC(=O)O` [oleic acid], for which the “CCT activity in DOPC/oleic acid liposomes versus DOPC liposomes alone” value with purified rat brain CCT (DOPC/oleic acid liposomes) was around 10 fold.

Take `CCCCCCCCCCCCC/C=C/[C@@H](O)[C@@H](N)CO` [sphingosine]: the “effect on CCT activity” value in assay [3] is on record as “inhibited”.

With ceramide, the “effect on CCT activity” value in assay [3] is on record as “inhibited”. In addition, in assay [4], the “effect of exogenously-added lipid” value is on record as “did not increase CCT activity”.

With galactosylceramide [GalCer], the “effect on CCT activity” value in assay [3] is “no significant effect”; in assay [4] (DOPC liposomes), “did not affect”; in assay [4] (setting [5]), “had no effect”; in the assay on purified rat brain CCT (DOPC/oleic acid liposomes) it was “no significant effect”. In addition, the “effect on purified CCT” value in the assay on purified rat brain CCT (DOPC liposomes) was “no significant effect”.

For glucosylceramide [GlcCer], the “effect on CCT activity” value in assay [3] is given as “activated”; in assay [4] (setting [5]), “increased CCT activity”; in the assay on purified rat brain CCT (DOPC/oleic acid liposomes), “small but significant increase”. For the same molecule, in the assay with purified rat brain CCT (DOPC liposomes, 2.5 mole percent), the “activation of CCT at the lowest concentration” value is given as “significant activation”. In the assay with purified rat brain CCT (DOPC liposomes, 10 mole percent), the “maximal activation of CCT” value was 3-4 fold. Further, the “increase in the rate of CDP-choline synthesis” value in assay [1] is above 2 fold.

lactosylceramide: the “effect on CCT activity” value in assay [3] is reported as “inhibited”. For the same molecule, the “effect of exogenously-added lipid” value in assay [4] is reported as “did not increase CCT activity”.

With sphingomyelin [SM], in assay [3], the “effect on CCT activity” value is “inhibited”. For the same molecule, the “effect of exogenously-added lipid” value in assay [4] is “did not increase CCT activity”.

The record behind these values is patent US7429460B2, “Methods of screening for inhibitors of phospholipid synthesis related to glycolipid-storage diseases” (Yeda Research and Development Co., Ltd., priority 2003, dated 2008).
